Reference: PubChem BioAssay AID330 (DTP/NCI, 2004)
“And” between values parts separate entries of the source, which are not always exact repeats. Equal entries are not always repeated. Toxic doses and inconclusive results are not listed.

Test system: P388 leukemia ip, CD2F1 mice, survival T/C
Assay: NCI In Vivo Anticancer Drug Screen. Data for tumor model P388 Leukemia (intraperitoneal) in CD2F1 (CDF1) mice
Details: endpoint: median survival time, higher = longer survival
Summary of the method: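 Mice carrying the transplanted tumor received test compound or vehicle. Survival was recorded in each group, and the value is the treated-group measurement divided by that of the vehicle-treated control group.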

[1] = dose: 25.0 mg/kg/injection, schedule: Q01DX005 (ip), vehicle: Klucel (hydroxypropylcellulose) (HPC)
[2] = dose: 100.0 mg/kg/injection, schedule: Q01DX001 (ip), vehicle: saline with Tween-80
[3] = dose: 60.0 mg/kg/injection, schedule: Q01DX005 (ip), vehicle: saline with Tween-80
[4] = dose: 120.0 mg/kg/injection, schedule: Q01DX005 (ip), vehicle: saline with Tween-80
[5] = dose: 240.0 mg/kg/injection, schedule: Q01DX005 (ip), vehicle: saline with Tween-80
[6] = dose: 50.0 mg/kg/injection, schedule: Q01DX005 (ip), vehicle: saline with Tween-80
[7] = dose: 100.0 mg/kg/injection, schedule: Q01DX005 (ip), vehicle: saline with Tween-80
[8] = dose: 200.0 mg/kg/injection, schedule: Q01DX005 (ip), vehicle: saline with Tween-80
[9] = dose: 25.0 mg/kg/injection, schedule: Q01DX009 (ip), vehicle: saline with Tween-80
[10] = dose: 50.0 mg/kg/injection, schedule: Q01DX009 (ip), vehicle: saline with Tween-80
[11] = dose: 100.0 mg/kg/injection, schedule: Q01DX009 (ip), vehicle: saline with Tween-80
[12] = dose: 50.0 mg/kg/injection, schedule: Q01DX005 (ip), vehicle: saline
[13] = dose: 100.0 mg/kg/injection, schedule: Q01DX005 (ip), vehicle: saline
[14] = dose: 200.0 mg/kg/injection, schedule: Q01DX005 (ip), vehicle: saline
[15] = dose: 200.0 mg/kg/injection, schedule: Q01DX009 (ip), vehicle: saline with Tween-80
[16] = dose: 50.0 mg/kg/injection, schedule: Q01DX005 (ip), vehicle: Klucel (hydroxypropylcellulose) (HPC)
[17] = dose: 100.0 mg/kg/injection, schedule: Q01DX005 (ip), vehicle: Klucel (hydroxypropylcellulose) (HPC)
[18] = dose: 200.0 mg/kg/injection, schedule: Q01DX005 (ip), vehicle: Klucel (hydroxypropylcellulose) (HPC)
[19] = dose: 100.0 mg/kg/injection, schedule: Q04DX002 (ip), vehicle: saline with Tween-80
[20] = dose: 200.0 mg/kg/injection, schedule: Q04DX002 (ip), vehicle: saline with Tween-80
[21] = dose: 400.0 mg/kg/injection, schedule: Q04DX002 (ip), vehicle: saline with Tween-80
[22] = dose: 100.0 mg/kg/injection, schedule: Q01DX009 (ip), vehicle: saline
[23] = dose: 200.0 mg/kg/injection, schedule: Q01DX009 (ip), vehicle: saline

`O=C([O][Sn]([O]C(=O)c1ccccc1)([c]1ccccc1)[c]1ccccc1)c1ccccc1` was tested, and the T/C (dose: 3.12 mg/kg/injection, schedule: Q01DX005 (ip), vehicle: Klucel (hydroxypropylcellulose) (HPC)) was 111 % of control, the T/C (dose: 6.25 mg/kg/injection, schedule: Q01DX005 (ip), vehicle: Klucel (hydroxypropylcellulose) (HPC)) was 116 % of control and 123 % of control and the T/C (dose: 12.5 mg/kg/injection, schedule: Q01DX005 (ip), vehicle: Klucel (hydroxypropylcellulose) (HPC)) was 111 % of control and 123 % of control. For the same compound, the T/C [1] was 151 % of control.
For `Cc1ccc(SSc2nnnn2C)cc1`, the T/C (dose: 50.0 mg/kg/injection, schedule: Q01DX009 (ip), vehicle: Klucel (hydroxypropylcellulose) (HPC)) was 100 % of control and the T/C (dose: 100.0 mg/kg/injection, schedule: Q01DX009 (ip), vehicle: Klucel (hydroxypropylcellulose) (HPC)) was 88 % of control.
For `Nc1cc(Cl)c(O)c(Cl)c1`, the T/C (dose: 25.0 mg/kg/injection, schedule: Q01DX001 (ip), vehicle: saline with Tween-80) was 100 % of control, the T/C (dose: 50.0 mg/kg/injection, schedule: Q01DX001 (ip), vehicle: saline with Tween-80) was 95 % of control and the T/C [2] was 90 % of control.
For `O=C(c1ccccc1)c1ccc[n+](Cc2c(Cl)cccc2Cl)c1`, the T/C (dose: 6.25 mg/kg/injection, schedule: Q01DX009 (ip), vehicle: saline) was 101 % of control and 98 % of control, the T/C (dose: 12.5 mg/kg/injection, schedule: Q01DX009 (ip), vehicle: saline) was 102 % of control and 105 % of control and the T/C (dose: 25.0 mg/kg/injection, schedule: Q01DX009 (ip), vehicle: saline) was 105 % of control and 111 % of control and 123 % of control. The T/C (dose: 50.0 mg/kg/injection, schedule: Q01DX009 (ip), vehicle: saline) was 108 % of control and 114 % of control and 117 % of control.
`COC(=O)Nc1cn2nc(C)sc2n1` was tested, and the T/C [3] was 99 % of control, the T/C [4] was 94 % of control and the T/C [5] was 91 % of control.
In the case of `O=c1c2ccccc2oc2nc3ccc(Cl)cc3n12`, the T/C [6] is reported as 112 % of control, the T/C [7] is reported as 101 % of control and the T/C [8] is reported as 98 % of control.
With `CC1(C)COC(c2cccc3c2C2C=CC3O2)=N1` (stereo not given) the T/C [3] was 92 % of control, the T/C [4] was 97 % of control and the T/C [5] was 108 % of control.
`CCC[CH2][Pb]([Cl])([CH2]CCC)[CH2]CCC` was tested, and the T/C (dose: 1.25 mg/kg/injection, schedule: Q01DX009 (ip), vehicle: saline with Tween-80) was 99 % of control, the T/C (dose: 2.5 mg/kg/injection, schedule: Q01DX009 (ip), vehicle: saline with Tween-80) was 99 % of control and the T/C (dose: 5.0 mg/kg/injection, schedule: Q01DX009 (ip), vehicle: saline with Tween-80) was 107 % of control. The T/C (dose: 10.0 mg/kg/injection, schedule: Q01DX009 (ip), vehicle: saline with Tween-80) was 103 % of control.
With `Clc1ccc(C2NCCNCc3ccccc32)cc1` (stereo not given) the T/C [9] was 101 % of control, the T/C [10] was 107 % of control and the T/C [11] was 98 % of control and 115 % of control.
In the case of `COc1cc2c(cc1CN(C)C)[nH]c1c3ccc(Cl)cc3ncc21`, the T/C (dose: 12.5 mg/kg/injection, schedule: Q01DX005 (ip), vehicle: saline with Tween-80) is reported as 104 % of control, the T/C (dose: 25.0 mg/kg/injection, schedule: Q01DX005 (ip), vehicle: saline with Tween-80) is reported as 103 % of control and the T/C [6] is reported as 109 % of control and 112 % of control.
For `CC(C)(F)c1nc2cc3ccccc3cc2[nH]c1=O`, the T/C [2] was 98 % of control and the T/C (dose: 200.0 mg/kg/injection, schedule: Q01DX001 (ip), vehicle: saline with Tween-80) was 90 % of control.
For `Cc1nc2c([N+](=O)[O-])c(N3CCN(C)CC3)c([N+](=O)[O-])cc2[nH]1`, the T/C (dose: 12.5 mg/kg/injection, schedule: Q04DX003 (ip), vehicle: saline with Tween-80) was 95 % of control, the T/C (dose: 25.0 mg/kg/injection, schedule: Q04DX003 (ip), vehicle: saline with Tween-80) was 106 % of control and the T/C (dose: 50.0 mg/kg/injection, schedule: Q04DX003 (ip), vehicle: saline with Tween-80) was 100 % of control and 90 % of control. For the same compound, the T/C (dose: 100.0 mg/kg/injection, schedule: Q04DX003 (ip), vehicle: saline with Tween-80) was 104 % of control.
`CCS1=C(C(C)=O)C(=O)O[C@H](C)C1` (stereo not given in full) was tested, and the T/C [12] was 100 % of control, the T/C [13] was 98 % of control and the T/C [14] was 115 % of control.
For `Cc1ncc(CO)c(/C=N/NC(=O)c2ccncc2)c1O`, the T/C (dose: 60.0 mg/kg/injection, schedule: Q01DX005 (ip), vehicle: Klucel (hydroxypropylcellulose) (HPC)) was 102 % of control, the T/C (dose: 120.0 mg/kg/injection, schedule: Q01DX005 (ip), vehicle: Klucel (hydroxypropylcellulose) (HPC)) was 102 % of control and the T/C (dose: 240.0 mg/kg/injection, schedule: Q01DX005 (ip), vehicle: Klucel (hydroxypropylcellulose) (HPC)) was 101 % of control.
`OCc1ccc(Cl)cc1Cl` was tested, and the T/C [10] was 104 % of control, the T/C [11] was 95 % of control and the T/C [15] was 109 % of control.
For `CCn1c2ccccc2c2cc(NC(=S)NC(=O)c3ccccc3)ccc21`, the T/C [6] was 87 % of control, the T/C [7] was 86 % of control and the T/C [8] was 87 % of control.
In the case of `C=C1C(=O)OC2CC(C)C3(O)CCC(=O)C3(C)CC12` (stereo not given), the T/C [1] is reported as 98 % of control, the T/C [16] is reported as 90 % of control and the T/C [17] is reported as 100 % of control. For the same compound, the T/C [18] was 102 % of control.
`CCC(=O)OCc1c(Cl)nc2n1CCS2` was tested, and the T/C (dose: 100.0 mg/kg/injection, schedule: Q01DX001 (ip), vehicle: Klucel (hydroxypropylcellulose) (HPC)) was 100 % of control and the T/C (dose: 200.0 mg/kg/injection, schedule: Q01DX001 (ip), vehicle: Klucel (hydroxypropylcellulose) (HPC)) was 100 % of control.
With `OCC1OC(Sc2ncc[nH]2)C(O)C(O)C1O` (stereo not given) the T/C (dose: 60.0 mg/kg/injection, schedule: Q01DX005 (ip), vehicle: saline) was 94 % of control and 97 % of control, the T/C (dose: 120.0 mg/kg/injection, schedule: Q01DX005 (ip), vehicle: saline) was 95 % of control and 96 % of control and the T/C (dose: 240.0 mg/kg/injection, schedule: Q01DX005 (ip), vehicle: saline) was 97 % of control and 90 % of control.
In the case of `Cc1cc(N(c2ccc([N+](=O)[O-])cc2)S(C)(=O)=O)c(C)cc1C=O`, the T/C [9] is reported as 101 % of control, the T/C [10] is reported as 99 % of control and the T/C [11] is reported as 98 % of control.
For `COC(=O)c1ccccc1-c1ccccc1C=O`, the T/C [19] was 97 % of control, the T/C [20] was 98 % of control and the T/C [21] was 100 % of control.
`ClC1COc2cc(c3ccccc3c2)-c2c(ccc3ccccc23)OCCOCCOc2ccc3ccccc3c2-c2c(ccc3ccccc23)OCC(Cl)O1` (stereo not given) was tested, and the T/C [19] was 102 % of control, the T/C [20] was 102 % of control and the T/C [21] was 105 % of control.
For `Nc1cc([N+](=O)[O-])ccc1O`, the T/C [22] was 102 % of control and 105 % of control, the T/C [23] was 101 % of control and the T/C (dose: 600.0 mg/kg/injection, schedule: Q01DX009 (ip), vehicle: saline) was 91 % of control.
`N=C(N)c1ccc(N=Nc2c(O)c(C(=O)Nc3ccccc3)cc3ccccc23)cc1` was tested, and the T/C [16] was 100 % of control, the T/C [17] was 101 % of control and the T/C [18] was 100 % of control.
`CC1CCCC2C(c3ccccc3)OCN12` (stereo not given) was tested, and the T/C [12] was 108 % of control, the T/C [13] was 111 % of control and the T/C [14] was 109 % of control.
In the case of `CCc1ccnc(N=C2N=C(Nc3cc(CC)ccn3)c3ccccc32)c1`, the T/C [10] is reported as 92 % of control, the T/C [11] is reported as 97 % of control and the T/C [15] is reported as 97 % of control.
In the case of `Cc1ccc(C2SCC(=O)N2CCN2C(=O)CSC2c2ccc(C)s2)s1` (stereo not given), the T/C [6] is reported as 101 % of control, the T/C [7] is reported as 109 % of control and the T/C [8] is reported as 100 % of control.
With `CSc1cccc([N+](=O)[O-])c1` the T/C [22] was 95 % of control and the T/C [23] was 87 % of control.
With `CC(=O)OCC1OC(OC(C)=O)C(NC(=O)CNC(=O)OCc2ccccc2)C(OC(C)=O)C1OC(C)=O` (stereo not given) the T/C (dose: 12.5 mg/kg/injection, schedule: Q01DX009 (ip), vehicle: other) was 107 % of control, the T/C (dose: 25.0 mg/kg/injection, schedule: Q01DX009 (ip), vehicle: other) was 100 % of control and the T/C (dose: 50.0 mg/kg/injection, schedule: Q01DX009 (ip), vehicle: other) was 91 % of control. The T/C (dose: 100.0 mg/kg/injection, schedule: Q01DX009 (ip), vehicle: other) was 89 % of control and the T/C (dose: 200.0 mg/kg/injection, schedule: Q01DX009 (ip), vehicle: other) was 98 % of control.
